The target in test [1] is Lactoperoxidase (Bos taurus, UniProt P80025). In words: LPO/TPO Selectivity Assay. On the procedure: (§1) The halogenation activities of LPO (EC 1.11.1.7) and TPO (EC 1.11.1.8) were determined using a modified method of that described previously [Ferrari et al., J. Inorg. Biochem., 68:61-69].
Test [2] deals with T1, Thyroid peroxidase (Homo sapiens, UniProt P07202).
T1 sequence (P07202 whole entry): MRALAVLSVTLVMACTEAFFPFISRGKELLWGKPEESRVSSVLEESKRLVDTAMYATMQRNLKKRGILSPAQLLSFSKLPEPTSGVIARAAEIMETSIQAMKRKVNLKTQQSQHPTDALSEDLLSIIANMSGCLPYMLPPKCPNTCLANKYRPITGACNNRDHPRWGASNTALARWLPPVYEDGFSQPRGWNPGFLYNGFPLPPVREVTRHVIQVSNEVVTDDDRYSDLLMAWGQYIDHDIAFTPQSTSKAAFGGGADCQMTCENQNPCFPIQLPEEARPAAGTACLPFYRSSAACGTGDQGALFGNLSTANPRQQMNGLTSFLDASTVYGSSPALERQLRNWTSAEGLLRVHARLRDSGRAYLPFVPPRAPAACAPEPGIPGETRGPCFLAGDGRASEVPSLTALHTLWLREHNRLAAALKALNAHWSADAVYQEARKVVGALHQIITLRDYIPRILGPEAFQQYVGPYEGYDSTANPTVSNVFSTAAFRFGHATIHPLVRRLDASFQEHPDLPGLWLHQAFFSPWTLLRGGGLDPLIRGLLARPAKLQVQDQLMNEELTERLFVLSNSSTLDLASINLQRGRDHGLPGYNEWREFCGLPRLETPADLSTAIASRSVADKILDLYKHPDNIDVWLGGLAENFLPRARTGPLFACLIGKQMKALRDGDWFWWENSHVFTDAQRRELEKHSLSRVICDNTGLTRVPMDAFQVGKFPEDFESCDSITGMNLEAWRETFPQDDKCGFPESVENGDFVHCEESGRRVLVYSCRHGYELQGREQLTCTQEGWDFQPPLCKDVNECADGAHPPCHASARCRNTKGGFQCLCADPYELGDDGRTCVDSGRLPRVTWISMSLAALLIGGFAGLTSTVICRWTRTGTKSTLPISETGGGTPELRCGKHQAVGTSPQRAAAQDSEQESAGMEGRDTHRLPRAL
In words: LPO/TPO Selectivity Assay. On the procedure: as §1

The target in test [3] is T2, Myeloperoxidase (Homo sapiens, UniProt P05164).
T2 sequence (P05164 whole entry): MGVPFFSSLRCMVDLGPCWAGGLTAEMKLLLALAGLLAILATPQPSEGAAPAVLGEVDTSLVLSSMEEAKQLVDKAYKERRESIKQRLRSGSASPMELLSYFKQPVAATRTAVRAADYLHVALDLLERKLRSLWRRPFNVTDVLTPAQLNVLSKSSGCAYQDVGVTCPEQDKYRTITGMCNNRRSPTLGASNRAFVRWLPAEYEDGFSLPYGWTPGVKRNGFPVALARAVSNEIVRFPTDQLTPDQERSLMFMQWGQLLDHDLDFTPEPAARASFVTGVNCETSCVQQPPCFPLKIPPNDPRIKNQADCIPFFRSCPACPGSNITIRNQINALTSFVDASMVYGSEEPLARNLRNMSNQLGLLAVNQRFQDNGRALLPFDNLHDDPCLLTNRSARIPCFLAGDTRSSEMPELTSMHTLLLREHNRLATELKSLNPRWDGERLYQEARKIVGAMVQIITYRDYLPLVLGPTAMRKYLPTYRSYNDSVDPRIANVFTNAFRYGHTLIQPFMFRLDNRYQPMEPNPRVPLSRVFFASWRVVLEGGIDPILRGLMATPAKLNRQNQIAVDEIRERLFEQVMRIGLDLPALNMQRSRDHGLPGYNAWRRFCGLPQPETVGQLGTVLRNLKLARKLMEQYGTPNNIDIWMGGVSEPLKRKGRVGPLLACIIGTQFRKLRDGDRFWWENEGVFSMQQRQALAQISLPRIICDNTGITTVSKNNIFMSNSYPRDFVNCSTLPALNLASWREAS
In words: Myeloperoxidase Assay. To be noted: pH 6.5. How it is done: Assays were performed at 22 °C with 2 nM MPO and 10 μM hydrogen peroxide (H2O2) in 20 mM NaH2PO4 buffer, pH 6.5 containing 140 mM NaCl, 10 mM taurine, and 1 mM L-tyrosine. Inhibitor compounds were preincubated with MPO for 15 min prior to the addition of H2O2, and the accumulation of taurine chloramine was determined after 1 min.

For test [4], the target named is T2, Myeloperoxidase. Put plainly: Surface Plasmon Resonance (SPR). To be noted: pH 5. On the procedure: Binding kinetics were determined by surface plasmon resonance (SPR) using a Biacore S51 (Biacore, Uppsala, Sweden). MPO (50 μg/ml dissolved in 10 mM sodium acetate, pH 5.0) was immobilized onto the surface of CM5 sensor chips (Biacore) using surface amine coupling. One of the spots on the sensor surface was left without MPO to control for nonspecific binding. The signal observed in response to analyte binding was as expected linearly related to the amount of immobilized ligand, and 10,000 response units was routinely used to characterize compoundbinding (data not shown). Compounds were dissolved in binding buffer (10 mM HEPES, pH 7.4, 150 mM NaCl, 3 mM Na2EDTA, 0.005% (w/v) surfactant P20, 1% (v/v) DMSO final), and association was assessed during 60-210-s injections. After this time, analyte injection was terminated, and the chip surface was perfused with binding buffer at 30 μl/min for 4-12 min to monitor compound dissociation.

SMILES strings stand for the structures.

On to `O=C(NO)c1c[nH]c(NCc2cc(C(F)(F)F)cc(C(F)(F)F)c2)nc1=O` [2-(3,5-bistrifluoromethylbenzylamino)-6-oxo-1H-pyrimidine-5-carbohydroxamic acid (HX1)], for which the IC50 – broadly, the midpoint of a concentration-inhibition curve – worked out at 6300 nM in test [1] and 1590 nM in test [2].

`O=C(NO)c1c[nH]c(NCc2ccccc2)nc1=O` [2-(benzylamino)-6-oxo-3H-pyrimidine-5-carbohydroxamic acid (HX3)]: the 50% inhibitory concentration (IC50) was 790 nM in test [3], 2000 nM in test [1] and 1590 nM in test [2]. Also, in test [4], the Kd (in general, the concentration at which binding is half-saturated) stood at 2000 nM.

`O=C(NO)c1ccc(Cc2ccccc2)cc1O` [4-benzyl-2-hydroxybenzenecarbohydroxamic acid (HX2)]: the IC50 came to 25.1 nM in test [3], 40 nM in test [1] and 63 nM in test [2]. For the same compound, in test [4], binding was characterised by a dissociation constant (Kd) of 63 nM.

For `O=C(NO)c1ccccc1O` [Salicylic hydroxamic acid], the results for the IC50 in test [3] and in test [2] were 25000 nM and 2000 nM, respectively.

(Values after BindingDB's records for doi:10.1074/jbc.M113.507756 (University of Otago Christchurch, 2013).)
